Legend:
[1] = tested on: Gli36ΔEGFR tumours-bearing nude mice; assay: PET/CT in vivo biodistribution and tumour uptake in orthotopic Gli36ΔEGFR glioma model; details: n = 3; for Bone (SUV mean) / Brain (SUV mean) / Colon (SUV mean) / Gall bladder (SUV mean) / Heart (SUV mean) / Kidney (SUV mean) / Liver (SUV mean) / Lung (SUV mean) / Muscle (SUV mean) / Salivary gland (SUV mean) / Small instestine (SUV mean): Gli36ΔEGFR female nude mice, i.v., PET/CT; for tumour-to-contralateral healthy brain ratio (tumour SUV max/contralateral SUV mean): Gli36ΔEGFR orthotopic glioma, nude mice
Method: Subsequently, we evaluated the uptake of [^18F]F-PSMA-617-NODA ([^18F]1) and [^18F]F-PSMA-617-RESCA ([^18F]2) in an orthotopic glioma model obtained with Gli36ΔEGFR cells in female nude mice. Gli36ΔEGFR tumours-bearing nude mice (n = 3) were injected i.v. with either [^18F]F-PSMA-617-NODA or [^18F]F-PSMA-617-RESCA (~ 3.8 MBq/mouse, ~ 50 pmol for [^18F]1 and ~ 170 pmol [^18F]2). Radiotracer uptake was assessed after 10, 60 and 120 min post injection by whole-body PET/CT acquisitions. Also in nude female mice, a rapid clearance of [^18F]1 in all organs and the same kinetic observed in NSG male mice (Additional file 1: S71A and B) were confirmed. […] It is interesting to note that the uptake of [^18F]1 in kidneys decreased over time in both models (Additional file 1: S71A and B), while the uptake of [^18F]F-PSMA-1007 in NSG model and [^18F]2 in nude female mice model increased (Additional file 1: S71C and D).
Total body biodistribution of [^18F]F-PSMA-1007, [^18F]F-PSMA-617-NODA and [^18F]F-PSMA-617-RESCA was evaluated in vivo using imaging PET/CT. [^18F]F-PSMA-617-NODA uptake was compared to that of the [^18F]F-PSMA-1007 in a PSMA positive prostate tumour xenograft model (LNCaP). [^18F]F-PSMA-617-NODA and [^18F]F-PSMA-617-RESCA uptake were also evaluated using an orthotopic glioma model (Gli36ΔEGFR).
5 × 10^5 Gli36ΔEGFR cells were injected in the right striatum of seven to eight weeks old female nude mice (Envigo RMS s.r.l., Italy) as previously described (Valtorta et al. [2021]). Ten days after mice underwent a T2-weighted Magnetic Resonance Imaging (MRI) using a 7 T small animal magnetic resonance scanner (Bruker, BioSpec 70/30 USR, Paravision 5.1, Germany) to confirm the growth of the tumour. Then, the same mice underwent in vivo biodistribution of [^18F]F-PSMA-617-NODA and [^18F]F-PSMA-617-RESCA, on successive but non-consecutive days, using PET/CT.
Mice were injected into a tail vein with 3.8 ± 0.1 MBq of [^18F]F-PSMA-1007, 4.0 ± 0.2 MBq of [^18F]F-PSMA-617-NODA ([^18F]1) and 3.8 ± 0.1 MBq of [^18F]F-PSMA-617-RESCA ([^18F]2), respectively.
Total body PET/CT acquisitions were performed using PET/CT tomographs dedicated to small animals, X-ß-CUBE (Molecubes, Gent, Belgium) after 10, 60 and 120 min from tracer injection. Each acquisition lasted 30 min and mice were maintained anesthetized (4% isoflurane in induction and 2% in maintenance in air) during acquisition.
Image quantification analysis was performed with PMOD 4.105 software (Zurich, Switzerland). Volumes of interest (VOIs) were drawn on peripheral organs (tumour, thoracic muscle, heart, liver, kidney, salivary glands, lung, small intestine, colon, bone, gall bladder) and on the healthy brain using CT images. For the glioma model, PET/CT images were co-registered to MRI images and two different VOIs were defined: (1) a control VOI covering the healthy left striatum (volume 4 mm^3) was drawn on the axial MR images, adjusted on the other imaging planes and then copied on the PET images of each mouse; (2) a second glioma-covering VOI was drawn in the tumour-affected brain hemisphere and centered on mice lesions.
For quantification, Standardized Uptake Value (SUV) was calculated according to the formula:
SUV = organ concentration activity [MBq/g]/(injected activity [MBq]/animal weight [g]).
The data were expressed as standardized-uptake-values (SUVmean and SUVmax) and as tumour-to-muscle (T/M) and tumour-to-blood (T/B) ratio in PCa model and as tumour-to-contralateral (T/Cl) ratio in glioma model.

[2] = Stability in final solution (analytical HPLC and radio-TLC); assay type: physicochemical; details: up to four hours after end of radiosynthesis, room temperature, HPLC and radio-TLC
Method: Chemical and radiochemical stability in the final solution were tested by analytical HPLC and radio-TLC (Additional file 1: S37–S41); samples of the purified product were analyzed up to four hours after the end of radiosynthesis, at time intervals of two hours and storing the vial at room temperature.
Stability in solution of [^18F]F-PSMA-617-NODA ([^18F]1) and [^18F]F-PSMA-617-RESCA ([^18F]2) were evaluated injecting in RP-HPLC (for experimental conditions, see sections “(((S)-5-((S)-2-((1R,4S)-4-((4-(4,7-bis(carboxymethyl)-1,4,7-triazonan-1-yl)butanamido)methyl)cyclohexane-1-carboxamido)-3-(naphthalen-2-yl)propanamido)-1-carboxypentyl)carbamoyl)-L-glutamic acid [^18F] aluminium fluoride ([^18F] 1)” and “(((S)-5-((S)-2-((1R,4S)-4-((2-(4-((((1R,2R)-2-(bis(carboxymethyl)amino)cyclohexyl)(carboxymethyl)amino)methyl)phenyl)acetamido)methyl)cyclohexane-1-carboxamido)-3-(naphthalen-2-yl)propanamido)-1-carboxypentyl)carbamoyl)-L-glutamic acid [18F] aluminium fluoride ([18F] 2)”) samples (20 µl) of respective radiopharmaceutical solutions at t = 0 (EOS), after 2 h and after 4 h. Moreover, ≈ 7.5 kBq of [^18F]1 or [^18F]2 solution were deposited on TLC sheet. The TLC was imaged using Cyclone® Plus Phosphor Scanner and software OptiQuant™.

Which “Bone (SUV mean)” value ([1]; 10 min p.i.) does the source give for `O=C(O)CCC(NC(=O)NC(CCCCNC(=O)C(Cc1ccc2ccccc2c1)NC(=O)C1CCC(CNC(=O)CCCN2CCN(CC(=O)O)CCN(CC(=O)O)CC2)CC1)C(=O)O)C(=O)O.[18F][Al]` [[^18F]F-PSMA-617-NODA, (((S)-5-((S)-2-((1R,4S)-4-((4-(4,7-bis(carboxymethyl)-1,4,7-triazonan-1-yl)butanamido)methyl)cyclohexane-1-carboxamido)-3-(naphthalen-2-yl)propanamido)-1-carboxypentyl)carbamoyl)-L-glutamic acid [^18F] aluminium fluoride] here?
Its value is 0.18 ± 0.09.

What about the “Brain (SUV mean)” value ([1]; 10 min p.i.) of the same molecule?
Its value is 0.06 ± 0.01.

And the “Colon (SUV mean)” value ([1]; 10 min p.i.)?
Its value is 0.37 ± 0.08.

And the “Gall bladder (SUV mean)” value ([1]; 10 min p.i.)?
The value was 0.33 ± 0.11.

What about the “Heart (SUV mean)” value ([1]; 10 min p.i.) of the same molecule?
Its value is 0.26 ± 0.05.

And the “Kidney (SUV mean)” value ([1]; 10 min p.i.)?
Its value is 13.11 ± 1.60.

And the “Liver (SUV mean)” value ([1]; 10 min p.i.)?
The value was 0.22 ± 0.01.

And the “Lung (SUV mean)” value ([1]; 10 min p.i.)?
Its value is 0.20 ± 0.04.

What about the “Muscle (SUV mean)” value ([1]; 10 min p.i.) of the same molecule?
Its value is 0.14 ± 0.01.

And the “Salivary gland (SUV mean)” value ([1]; 10 min p.i.)?
Its value is 0.54 ± 0.17.

And the “Small instestine (SUV mean)” value ([1]; 10 min p.i.)?
The value was 0.32 ± 0.05.

What about the “Bone (SUV mean)” value ([1]; 60 min p.i.) of the same molecule?
The value was 0.13 ± 0.08.

What about the “Brain (SUV mean)” value ([1]; 60 min p.i.) of the same molecule?
Its value is 0.03 ± 0.01.

What about the “Colon (SUV mean)” value ([1]; 60 min p.i.) of the same molecule?
The value was 0.27 ± 0.13.

What about the “Gall bladder (SUV mean)” value ([1]; 60 min p.i.) of the same molecule?
Its value is 0.10 ± 0.03.

And the “Heart (SUV mean)” value ([1]; 60 min p.i.)?
The value was 0.10 ± 0.03.

What about the “Kidney (SUV mean)” value ([1]; 60 min p.i.) of the same molecule?
The value was 13.32 ± 2.23.

What about the “Liver (SUV mean)” value ([1]; 60 min p.i.) of the same molecule?
The value was 0.11 ± 0.01.

What about the “Lung (SUV mean)” value ([1]; 60 min p.i.) of the same molecule?
The value was 0.09 ± 0.04.

And the “Muscle (SUV mean)” value ([1]; 60 min p.i.)?
Its value is 0.07 ± 0.01.

And the “Salivary gland (SUV mean)” value ([1]; 60 min p.i.)?
The value was 0.24 ± 0.09.

What about the “Small instestine (SUV mean)” value ([1]; 60 min p.i.) of the same molecule?
Its value is 0.25 ± 0.06.

And the “Bone (SUV mean)” value ([1]; 120 min p.i.)?
The value was 0.12 ± 0.09.

What about the “Brain (SUV mean)” value ([1]; 120 min p.i.) of the same molecule?
Its value is 0.02 ± 0.01.

What about the “Colon (SUV mean)” value ([1]; 120 min p.i.) of the same molecule?
The value was 0.16 ± 0.03.

What about the “Gall bladder (SUV mean)” value ([1]; 120 min p.i.) of the same molecule?
The value was 0.04 ± 0.01.

What about the “Heart (SUV mean)” value ([1]; 120 min p.i.) of the same molecule?
Its value is 0.04 ± 0.002.

What about the “Kidney (SUV mean)” value ([1]; 120 min p.i.) of the same molecule?
Its value is 9.30 ± 3.60.

What about the “Liver (SUV mean)” value ([1]; 120 min p.i.) of the same molecule?
The value was 0.05 ± 0.01.

What about the “Lung (SUV mean)” value ([1]; 120 min p.i.) of the same molecule?
Its value is 0.04 ± 0.01.

What about the “Muscle (SUV mean)” value ([1]; 120 min p.i.) of the same molecule?
Its value is 0.03 ± 0.01.

What about the “Salivary gland (SUV mean)” value ([1]; 120 min p.i.) of the same molecule?
Its value is 0.08 ± 0.04.

And the “Small instestine (SUV mean)” value ([1]; 120 min p.i.)?
Its value is 0.15 ± 0.06.

And the “tumour-to-contralateral healthy brain ratio (tumour SUV max/contralateral SUV mean)” value ([1]; 60 min p.i.)?
The value was 7.75 ± 3.06.

What about the “tumour-to-contralateral healthy brain ratio (tumour SUV max/contralateral SUV mean)” value ([1]; 120 min p.i.) of the same molecule?
The value was 10.92 ± 3.56.

And the “Chemical and radiochemical stability in the final solution” value ([2]; listed as [^18F]1)?
Its value is “stable and no loss of radioactivity due to radiolytic degradation and aluminum fluoride release were detected”.

And the “Chemical and radiochemical stability in the final solution” value ([2]; listed as [^18F]PSMA-617-NODA)?
The value was “neither the release of [^18F]AlF^2+ in solution, nor the formation of other degradation by-products was noticed”.

Reference: publication PMC11192711, “Automated radiosynthesis and preclinical evaluation of two new PSMA-617 derivatives radiolabelled via [^18F]AlF^2+ method” (EJNMMI Radiopharmacy and Chemistry, 2024)
